Series [1] in a line: Cytotoxicity against human Caco2 cells after 24 hrs by MTT assay. The format is functional, cell-based, Caco-2. (In general: Tetrazolium dyes change colour on reduction, which living cells bring about.)
Series [2] is described as follows: Aqueous solubility of compound at room temperature. It counts as physicochemical. The conditions noted are these: water.
Another series in a line: cells. As to conditions: Homo sapiens, 3215LS, 24 h. It counts as ADME, cell-based.

Description for cells: Cytotoxicity against human 3215LS cells after 24 hrs by MTT assay

For the compound `CCn1cc[n+](C)c1` [listing 1 of 2 here], in series [1] (caco-2), it took 5.97 mM to reach half-maximal inhibition (IC50). For the compound `C[n+]1ccn(CCOC(=O)c2ccccc2O)c1.[Cl-]`, in series [1] (caco-2), the IC50 (in general, the midpoint of a concentration-inhibition curve) was 3.82 mM. For the same compound, the concentration in solution in series [2] (solubility) came to 267 mg/mL. On to `O=C(O)c1ccccc1O` [SALICYLIC ACID], for which the IC50 worked out at 5 mM in series [1] (Homo sapiens, Caco-2, 24 h) and 1.14 mM in the series “cells”. For `C[n+]1ccn(CCCOC(=O)c2ccccc2O)c1`, the IC50 in series [1] (Homo sapiens, Caco-2, 24 h) was 2.55 mM; in the series “cells”, 3.19 mM. In the case of `CCCCCCn1cc[n+](C)c1` [listing 1 of 2 here], in series [1] (caco-2), 6.21 mM corresponded to half-maximal inhibition (IC50). For the compound `CCCCn1cc[n+](C)c1` [listing 1 of 3 here], the IC50 in series [1] (caco-2) stood at 4.34 mM.

With `CCCCn1cc[n+](C)c1` [listing 2 of 3 here], the IC50 in series [1] (caco-2) was 11.2 mM. As for `CCCCCCn1cc[n+](C)c1` [listing 2 of 2 here], the IC50 in series [1] (caco-2) worked out at 1.96 mM. The same measure, in the same setting: for `CCn1cc[n+](C)c1` [listing 2 of 2 here] the value was 32.1 mM. Consider `COC(=O)[C@H](C)N`, for which the IC50 in series [1] (Homo sapiens, Caco-2, 24 h) came to 6.24 mM; in “cells”, 2.63 mM. With `CCCCn1cc[n+](C)c1` [listing 3 of 3 here], half-maximal inhibition in series [1] (caco-2) (IC50) was put at 18.8 mM. In series [1] (Homo sapiens, Caco-2, 24 h), `C[n+]1ccn(CCOC(=O)c2ccccc2O)c1` yielded an IC50 of 4.77 mM.
